Laboratory results: paper PMC4267622, “Pin1-mediated Sp1 phosphorylation by CDK1 increases Sp1 stability and decreases its DNA-binding activity during mitosis” (Nucleic Acids Research, 2014)

Experiments:
[1] = system: p21^CIP/WAP; test: p21^CIP/WAP luciferase activity assay; format: cell-based; conditions: HeLa, vs GFP-Sp1 (1–785)
Protocol: (§1) HeLa cells and mouse embryonic fibroblasts (MEFs) were cultured in DMEM containing 10% of FBS, 100μg/ml streptomycin sulfate and 100 units/ml penicillin G sodium at 37°C, 5% CO2. For transfection of GFP-Sp1, GFP-Sp1-T739A, GFP-Sp1-T739D, GFP-Sp1 (1-740), GFP-Sp1-4A, GFP-Sp1-4D, HA-Sp1, HA-Sp1-4A (S720A, T723A, T737A and T739A), HA-Sp1-4D (S720D, T723D, T737D and T739D), pGL2, pGL2-p21, Sp1 shRNA, or Pin1 shRNA, 2 μg of plasmids was incubated with 2 μl of Lipofectamine in 200 μl of OPTI-MEM for 30 min in room temperature. After incubation, the mixture of plasmids and Lipofectamine in OPTI-MEM was added into 2 ml of OPTI-MEM. The cells were incubated with the mixture of plasmids and Lipofectamine for 6 h. The cells were then incubated in fresh Dulbecco's modified Eagle's medium (DMEM) for 18 or 36 h. The cells were collected for immunoprecipitation or immunoblotting.

[2] = system: RNF4; test: RNF4 co-immunoprecipitation with GFP-Sp1 constructs; format: binding; conditions: HeLa, anti-GFP immunoprecipitation, vs full-length Sp1 (1–785)
Protocol: Cell lysates were prepared by using mRIPA buffer (50 mM Tris-HCl, pH 7.8, 150 mM NaCl, 5 mM ethylenediaminetetraacetic acid (EDTA), 0.1% Triton-X100, 0.05% NP-40). The lysates were incubated with anti-Sp1 (1:500), anti-CDK1 (1:200), anti-Pin1 (1:250), anti-HA tag (1:250), or anti-GFP tag (1:200) antibodies at 4°C for 1 h. After 1 h incubation, the mixture was incubated with Protein A or G Sepharose agarose beads at 4°C for 1 h. The beads were collected and washed three times by mRIPA buffer. The beads were added 2X electrophoresis sample buffer and analysed by immunoblotting.

[3] = system: Sp1-binding probe of p21^WAF1/CIP1 promoter; test: DNA affinity precipitation assay (DAPA); conditions: mitotic extract of HeLa cells, 4°C, 1 h, three independent experiments
Protocol: Cell lysate incubated with 1 μg of binding probes in 500 μl binding of buffer (2 mM MgCl2, 60 mM KCl, 20 mM Tris-HCl pH 7.8, 5% glycerol, 0.5 mM EDTA and 0.02% NP-40). After incubation for 1 h at 4°C, the mixture was incubated with 30 μl of streptavidin-agarose beads (GE Healthcare Life Sciences) for 1 h at 4°C. The mixture was washed three times by binding buffer. The proteins in the beads were eluted by 2X sample buffer and analysed by SDS-PAGE and immunoblotting. The Sp1-binding probe 5′-[…]-3′, localized from −82 to −50 bp within the promoter of p21^WAF1/CIP1, was biotinylated at 5′ termini and then annealed with complementary strands.

[4] = system: HeLa cells; test: Protein level of GFP-Sp1 constructs in HeLa cells (western blot); format: cell-based; conditions: equal amount of plasmids
Protocol: as §1
Cell lysates or immunoprecipitation samples were fractionated by sodium dodecyl sulfate-polyacrylamide gel electrophoresis (SDS-PAGE) and transferred to polyvinylidene fluoride (PVDF) membrane using a transfer apparatus according to the manufacturer's protocols (Bio-Rad). After incubation with 3% non-fat milk or 2% bovine serum albumin in Tris-buffered Saline with Tween 20 buffer (TBST buffer, 10 mM Tris-HCl pH 8.0, 150 mM NaCl and 0.5% Tween 20) for 1 h, membranes were incubated with antibodies at 4°C overnight. […]

[5] = system: HeLa cells; test: Sp1 localisation on chromosomes during mitosis; format: cell-based; conditions: nocodazole 16 h
Protocol: The cells were fixed with 4% paraformaldehyde (Sigma-Aldrich) in PBS according to a method described previously ([3]). Immunostaining was conducted with primary antibodies such as anti-Sp1, anti-GFP tag (Santa Cruz Biotechnology, Santa Cruz, CA), or anti-Pin1 (Calbiochem, San Diego, CA) antibodies. The cells were then treated with Alexa Fluor 488-conjugated goat anti-mouse or rabbit immunoglobulin G (IgG) and Alexa Fluor 568-conjugated goat anti-mouse or rabbit IgG polyclonal antibodies (Jackson ImmunoResearch Laboratories Inc., West Grove, PA). Finally, the cells were mounted in 90% glycerol containing 4'-6-diamidino-2-phenylindole (DAPI) (Invitrogen), and examined using a confocal laser-scanning microscope (FluoView^TM FV 1000; Olympus, Melville, NY) or immunofluorescence microscope (Personal DV Applied Precision, Issaquah, WA). The images were analysed with softWoRx software (Applied Precision Inc.).

[6] = system: HeLa cells; test: Flow cytometry with PI staining (cell cycle); format: cell-based; conditions: nocodazole 16 h
Protocol: The cells washed by cold PBS and then fixed in 70% alcohol or 4% paraformaldehyde at 4°C for 2 h. After fixation, the cells washed by cold PBS and treated with 0.1% TritonX-100, 10μg/ml RNase and 50 μg/ml propidium iodide for 1 h. The cells were analysed by flow cytometer (Cell Lab Quanta™ SC; Beckman Coulter or FACSCalibur; BD Biosciences).

[7] = system: Pin1 R14A mutant; test: X-ray crystallography of Sp1 peptide with Pin1 R14A; format: binding; conditions: co-crystallization, Pin1 pre-mixed with 10-fold peptide, 4°C for 4 h
Protocol: (§2) Additionally, two other point mutants of Pin1, K63A and C113A, which are PPIase-activity-deficient, were generated and used in the crystallographic experiments ([42]). For the crystallization and the thermodynamic parameters of Pin1 and Sp1 peptide binding analysis, protein expression and crystallization of Pin1 was performed in slightly modified as described previously ([41]). In brief, the gene for Pin1 was cloned into pET28a with an N-terminal His12-tag and a thrombin cleavage site. R14A, R14A/K63A and R14A/C113A mutants of Pin1 were generated using the PCR-based QuikChange site-directed mutagenesis kit (Agilent). The correct construct was transformed into E. coli BL-21 (DE3) competent cells for protein expression. Transformed BL21 (DE3) bacteria were grown in Luria Bertani (LB) medium containing […] kanamycin at 30°C. Bacteria were induced with 1 mM isopropyl β-D-thiogalactoside (IPTG) overnight at 20°C. Pin1 proteins were purified by Ni^2+-nitrilotriacetic acid affinity chromatography, digested with thrombin and further purified by second run of Ni^2+-nitrilotriacetic acid affinity chromatography. The protein was prepared at 10–20 mg/ml in 10mM HEPES pH 7.5 containing 100 mM NaCl and 1 mM DTT for crystallization. […]
(§3) All crystals were flash-cooled to 100 K in a stream of cold nitrogen prior to data collection. […] The electron density was calculated by Refmac5 ([43]). […]

[8] = system: Pin1; test: Isothermal titration calorimetry binding of Sp1 peptides to Pin1; conditions: 25°C
Protocol: Additionally, two other point mutants of Pin1, K63A and C113A, which are PPIase-activity-deficient, were generated and used in the crystallographic experiments ([42]). For the crystallization and the thermodynamic parameters of Pin1 and Sp1 peptide binding analysis, protein expression and crystallization of Pin1 was performed in slightly modified as described previously ([41]). In brief, the gene for Pin1 was cloned into pET28a with an N-terminal His12-tag and a thrombin cleavage site. R14A, R14A/K63A and R14A/C113A mutants of Pin1 were generated using the PCR-based QuikChange site-directed mutagenesis kit (Agilent). The correct construct was transformed into E. coli BL-21 (DE3) competent cells for protein expression. Transformed BL21 (DE3) bacteria were grown in Luria Bertani (LB) medium containing […] kanamycin at 30°C. Bacteria were induced with 1 mM isopropyl β-D-thiogalactoside (IPTG) overnight at 20°C. Pin1 proteins were purified by Ni^2+-nitrilotriacetic acid affinity chromatography, digested with thrombin and further purified by second run of Ni^2+-nitrilotriacetic acid affinity chromatography. The protein was prepared at 10–20 mg/ml in 10mM HEPES pH 7.5 containing 100 mM NaCl and 1 mM DTT for crystallization. Crystals were grown from a drop composed of […] of protein solution and […] of reservoir solution consisting of 2.0–2.5 M (NH4)2SO4, 1–2% (w/v) PEG 400 and 1–2 mM DTT in 0.1M HEPES buffer pH 7.5 equilibrated at 4°C against 0.5 ml of reservoir solution using the hanging-drop vapor-diffusion method. Crystals of Pin1 in complex with Sp1 peptides were obtained in co-crystallization experiments with the Pin1 protein pre-mixed with 10-fold Sp1 peptide and incubated at 4°C for 4 h before crystallization.
Thermodynamic parameters of Pin1 and Sp1 peptide binding were determined using a Micro-Cal iTC200 (GE Healthcare Life Sciences). All samples were filtered with […] cutoff filters (Millipore). The buffer for Pin1 and Sp1 peptide solutions consisted of 10 mM HEPES pH 7.5, 100 mM NaCl and 1 mM DTT. A […] solution of Sp1 peptide was directly titrated into a solution of […] Pin1 in […] aliquots. The experiments were performed at 25°C. Data were then analysed using the software origin.
To confirm that Pin1 indeed affects the C-terminal conformation of Sp1, Pin1 was purified and oligopeptides of the region 735–745 of Sp1, with or without phosphate at Thr739, were synthesized for ITC and X-ray crystallography experiments (Figure 3). […] Furthermore, two other point mutants of Pin1, K63A and C113A, which are PPIase-activity-deficient, were generated and used in the crystallographic experiments ([42]).
Figure 3. Pin1 recruitment alters the conformation of C-terminal Sp1. (A) The binding analyses of Thr739-Sp1 (left panel) and Thr739(p)-Sp1 (right panel) peptides to Pin1 were determined by ITC. Representative plots from an ITC experiment are shown with raw data in the upper panel and curve fit in the lower panel. The Thr739-Sp1 or Thr739(p)-Sp1 peptides were titrated into the reaction cell containing Pin1 protein. […] The 2Fo–Fc electron density is shown in blue color, contoured at 1σ. […] Overall structure (i) and a close-up view of the active-site pocket of Pin1 (ii). […] Positive charges on the electrostatic surfaces are drawn in blue and negative charges in red.

[9] = system: Pin1 R14A/C113A mutant; test: X-ray crystallography of Sp1 peptide with Pin1 R14A/C113A; format: binding; conditions: ablated isomerase activity; co-crystallization, 10-fold peptide, 4°C for 4 h
Protocol: as §2, §3

Substance	transcriptional activity of p21^CIP/WAP [1]	interaction with RNF4 [2]	DNA-binding activity to the p21^CIP/WAP promoter [3]	protein level [4]	removal from chromosomes during mitosis [5]	cells entered mitosis [6]	configurations of electron density map of bound peptide [7]	Ka ([8]; ITC curve fit, 10 mM HEPES pH 7.5, 100 mM NaCl, 1 mM DTT)	N (stoichiometry of bound Thr739(p)-Sp1 peptide per Pin1 protein) ([8]; ITC curve fit, pH 7.5)	ΔH ([8]; ITC curve fit, pH 7.5)	ΔS ([8]; ITC curve fit, pH 7.5)	interaction with Pin1 ([8]; ITC, 10 mM HEPES pH 7.5, 100 mM NaCl, 1 mM DTT)	configurations of electron density map of bound peptide [9]
GFP-Sp1 (1–740): GFP-Sp1 lacking the C-terminal end (741–785)	increased the transcriptional activity of p21^CIP/WAP	decreased interaction between RNF4 and GFP-Sp1 (1–740)	increased the DNA-binding activity of Sp1 during mitosis	higher than that of GFP-Sp1 (1–785)									
Sp1-4D: Sp1 mutant S720D, T723D, T737D and T739D			decreased the DNA-binding activity of Sp1 to the p21^CIP/WAP promoter		completely removed from the chromosomes	75%							
Thr739(p)-Sp1 peptide: oligopeptide of the region 735–745 of Sp1, with phosphate at Thr739							one configuration	7.4 ± 1.4 × 10^3 M^−1	0.93 ± 0.25	-6.8 ± 2.2 kcal/mol	-5.0 cal/mol/K	Pin1 could interact with the Thr739(p)-Sp1 peptide	two configurations
